Results taken from patent US20240109864A1, “SUBSTITUTED PYRAZOLYL PIPERIDINE CARBOXYLIC ACIDS” (BAYER AKTIENGESELLSCHAFT, priority 2020, published 2024).
Where a name gives a salt, the structure may show the parent alone.

Biological target: T1, recombinant guanylate cyclase reporter cell line (Rattus norvegicus, UniProt P20595)
T1 construct: expressed in transfected cells
T1 sequence (P20595 1-619): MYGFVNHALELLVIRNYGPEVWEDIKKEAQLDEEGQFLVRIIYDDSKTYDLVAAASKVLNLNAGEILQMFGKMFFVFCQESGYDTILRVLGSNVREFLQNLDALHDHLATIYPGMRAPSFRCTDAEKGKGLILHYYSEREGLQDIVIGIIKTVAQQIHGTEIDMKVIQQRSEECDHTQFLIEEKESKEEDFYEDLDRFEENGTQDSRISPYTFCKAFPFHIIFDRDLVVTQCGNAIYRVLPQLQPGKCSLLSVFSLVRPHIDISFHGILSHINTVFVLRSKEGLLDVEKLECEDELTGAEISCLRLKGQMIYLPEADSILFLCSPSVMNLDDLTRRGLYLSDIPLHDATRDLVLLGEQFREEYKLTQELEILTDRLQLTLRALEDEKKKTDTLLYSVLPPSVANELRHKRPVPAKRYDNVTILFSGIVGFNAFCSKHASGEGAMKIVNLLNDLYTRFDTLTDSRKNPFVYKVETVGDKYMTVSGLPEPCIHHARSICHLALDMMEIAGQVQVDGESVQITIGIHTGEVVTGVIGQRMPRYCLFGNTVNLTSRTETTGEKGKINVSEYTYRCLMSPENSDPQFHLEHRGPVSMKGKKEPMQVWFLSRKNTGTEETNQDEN
T1 sequence (P19686 1-690 partner): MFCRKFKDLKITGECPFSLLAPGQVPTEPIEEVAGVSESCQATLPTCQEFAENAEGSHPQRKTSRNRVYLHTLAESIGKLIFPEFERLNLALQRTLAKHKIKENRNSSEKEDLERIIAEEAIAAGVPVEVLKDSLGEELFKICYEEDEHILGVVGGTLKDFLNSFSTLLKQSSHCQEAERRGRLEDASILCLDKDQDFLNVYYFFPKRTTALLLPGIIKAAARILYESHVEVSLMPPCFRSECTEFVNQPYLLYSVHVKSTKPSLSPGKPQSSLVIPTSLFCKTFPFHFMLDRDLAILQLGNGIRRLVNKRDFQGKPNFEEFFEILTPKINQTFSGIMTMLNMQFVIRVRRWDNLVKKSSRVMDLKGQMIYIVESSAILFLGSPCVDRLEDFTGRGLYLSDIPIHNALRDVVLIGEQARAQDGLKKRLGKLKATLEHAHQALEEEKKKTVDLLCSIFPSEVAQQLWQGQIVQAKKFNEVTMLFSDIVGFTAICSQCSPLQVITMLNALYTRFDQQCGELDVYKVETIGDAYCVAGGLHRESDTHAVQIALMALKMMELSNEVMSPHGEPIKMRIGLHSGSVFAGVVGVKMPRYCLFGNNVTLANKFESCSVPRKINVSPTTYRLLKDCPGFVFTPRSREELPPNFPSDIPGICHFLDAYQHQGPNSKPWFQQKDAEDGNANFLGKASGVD
Experiment: Effect on a recombinant guanylate cyclase reporter cell line
Assay type: cell-based
Conditions: in some cases mean values from individual determinations; for MEC: MEC = minimum effective concentration; for EC50: half maximal effective concentration
Description: The cellular activity of the compounds according to the invention was determined using a recombinant guanylate cyclase reporter cell line, as described in F. Wunder et al., Anal. Biochem. 339, 104-112 (2005).

SMILES	MEC	EC50	MEC (hydrochloride)
O=C(O)c1cnn(C2CCCN(c3cc(Cl)ccc3-c3ccc(N4CCN(CC56CC(F)(C5)C6)CC4)cc3)C2)c1C(F)(F)F (single isomer, unassigned) [Example 24, 1-[1-[5-Chloro-2-[4-[4-[(3-fluoro-1-bicyclo[1.1.1]pentanyl)methyl]piperazin-1-yl]phenyl]phenyl]-3-piperidyl]-5-(trifluoromethyl)pyrazole-4-carboxylic acid hydrochloride]	3.0 nM	12.7 nM	–
CC(C)CN1CCc2cc(-c3ccc(Cl)cc3N3CCCC(n4ncc(C(=O)O)c4C(F)(F)F)C3)ccc2C1 (single isomer, unassigned) [Example 81, 1-[1-[5-Chloro-2-(2-isobutyl-3,4-dihydro-1H-isoquinolin-6-yl)phenyl]-3-piperidyl]-5-(trifluoromethyl)pyrazole-4-carboxylic acid hydrochloride]	30.0 nM	43 nM	–
O=C(O)c1cnn(C2CCCN(c3cc(Cl)ccc3-c3ccc(N4CCN(CC(F)(F)F)CC4)nc3)C2)c1C(F)(F)F (single isomer, unassigned) [Example 75, 1-[1-[5-Chloro-2-[6-[4-(2,2,2-trifluoroethyl)piperazin-1-yl]-3-pyridyl]phenyl]-3-piperidyl]-5-(trifluoromethyl)pyrazole-4-carboxylic acid]	3.0 nM	16 nM	–
CNC(=O)N1CCN(c2ccc(-c3ccc(Cl)cc3N3CCCC(n4ncc(C(=O)O)c4C(F)(F)F)C3)cc2)CC1 (single isomer, unassigned) [Example 65, 1-[1-[5-Chloro-2-[4-[4-(methylcarbamoyl)piperazin-1-yl]phenyl]phenyl]-3-piperidyl]-5-(trifluoromethyl)pyrazole-4-carboxylic acid]	10.0 nM	56.5 nM	–
CN1CCN(c2ccc(-c3ccc(Cl)cc3N3CCCC(n4ncc(C(=O)O)c4C(F)(F)F)C3)cc2)CC1 (single isomer, unassigned) [Example 2, 1-{1-[4-Chloro-4′-(4-methylpiperazin-1-yl)[1,1′-biphenyl]-2-yl]piperidin-3-yl}-5-(trifluoromethyl)-1H-pyrazole-4-carboxylic acid hydrochloride]	–	28.8 nM	5.5 nM
N#CCCN1CCN(c2ccc(-c3ccc(Cl)cc3N3CCCC(n4ncc(C(=O)O)c4C(F)(F)F)C3)cc2)CC1 (single isomer, unassigned) [Example 5, 1-[1-[5-Chloro-2-[4-[4-(2-cyanoethyl)piperazin-1-yl]phenyl]phenyl]-3-piperidyl]-5-(trifluoromethyl)pyrazole-4-carboxylic acid]	1.0 nM	4.8 nM	–
O=C(O)c1cnn(C2CCCN(c3cc(Cl)ccc3-c3ccc(N4CCN(CC5CC5)CC4)c(F)c3)C2)c1C(F)(F)F (single isomer, unassigned) [Example 71, 1-[1-[5-Chloro-2-[4-[4-(cyclopropylmethyl)piperazin-1-yl]-3-fluoro-phenyl]phenyl]-3-piperidyl]-5-(trifluoromethyl)pyrazole-4-carboxylic acid hydrochloride]	10.0 nM	69.5 nM	–
O=C(O)c1cnn(C2CCCN(c3cc(Cl)ccc3-c3ccc(N4CCN(CC5CC5)CC4)cc3F)C2)c1C(F)(F)F (single isomer, unassigned) [Example 69, 1-[1-[5-Chloro-2-[4-[4-(cyclopropylmethyl)piperazin-1-yl]-2-fluoro-phenyl]phenyl]-3-piperidyl]-5-(trifluoromethyl)pyrazole-4-carboxylic acid hydrochloride]	3.0 nM	13.8 nM	–
O=C(O)c1cnn(C2CCCN(c3cc(Cl)ccc3-c3ccc(N4CCN(C(=O)C5CC56CC6)CC4)cc3)C2)c1C(F)(F)F (single isomer, unassigned) [Example 53, 1-[1-{4-chloro-4′-[4-(spiro[2.2]pentane-1-carbonyl)piperazin-1-yl][1,1′-biphenyl]-2-yl}piperidin-3-yl]-5-(trifluoromethyl)-1H-pyrazole-4-carboxylic acid]	10.0 nM	22 nM	–
